Where two headings read alike, the source gives them in different places. Blank lines part the entries; values can stand above or below the compound they belong to.
How the values were obtained:
INDY = molecular target: T1, INDY (Drosophila melanogaster, UniProt Q9VVT2); experiment: Inhibition of [14C] succinate uptake in Xenopus oocytes injected with Indy mRNA; assay type: cell-based
T1 construct: expressed in transfected cells; host or cells: Xenopus laevis oocytes (stage V and VI) injected with Indy mRNA
Experimental: Stage V and VI oocytes from Xenopus laevis were dissected and defoliculated. The oocytes were injected with 25–50 ng of Indy mRNA 1 day after isolation. Nutrient uptake was measured 6 to 7 days later. The oocytes were maintained at 18° C. in Barth's solution containing […] gentamycin sulfate, 2.5 mM sodium pyruvate, and 5% heat-inactivated horse serum (Coady et al., Arch. Biochem. Biophys. 283: 130–134, 1990; Pajor and Wright, J. Biol. Chem 26:, 3557–3560, 1992).
Transport measurements were performed as in Pajor, J. Biol. Chem. 270: 5779–5785, 1995. Groups of oocytes were first washed in choline buffer to remove the serum. Transport was initiated by adding 0.4 ml of [^14C] succinate or [^14C] citrate in buffer A. Buffer A comprises 100 mM NaCl, 2 mM KCl, 1 mM MgCl2, and 10 mM HEPES-Tris (pH 7.5). Buffer B is the same as buffer A except the NaCl is replaced by 100 mM choline Cl. For other cation replacement studies, the sodium was replaced by equimolar amounts of the other cations, as their chloride salts. At the completion of the transport time, the nutrient uptake was stopped with 4 washes of 4 ml of ice-cold buffer B. To count the amount of [^14C] taken up by the oocyte, each oocyte was dissolved in 0.5 ml of 10% SDS, and the [^14C] assayed by scintillation counting.
Studies of sodium dicarboxylate cotransporters have indicated a broad range of specificity for di- and tri-carboxylic acids and the exclusion of monocarboxylic acids. The transport specificity of Indy was thus determined as the ability of various compounds to inhibit the uptake of [^14C] succinate. The test inhibitors were added at a concentration of 1 mM, approximately a 100-fold excess of inhibitor.
The relative affinity of INDY for succinate and citrate was determined by adding a constant amount of [^14C] succinate and increasing concentrations of citrate to oocytes expressing INDY.
To further characterize INDY, inhibitors of transport were added to the Indy oocyte system. P-aminohippuric Acid (PAH) is a reference compound used to study transport mechanisms. 4,4′-Diisothyocyanostilbene-2,2′-disulfonic acid (DIDS) is a specific inhibitor of channels. Phloretin is an inhibitor of channels that is known to block protein kinase C.

[1] = molecular target: T2, rat sodium dicarboxylate cotransporter (Rattus norvegicus, UniProt P70545); conditions: cited from earlier work
T2 sequence (P70545 1-587): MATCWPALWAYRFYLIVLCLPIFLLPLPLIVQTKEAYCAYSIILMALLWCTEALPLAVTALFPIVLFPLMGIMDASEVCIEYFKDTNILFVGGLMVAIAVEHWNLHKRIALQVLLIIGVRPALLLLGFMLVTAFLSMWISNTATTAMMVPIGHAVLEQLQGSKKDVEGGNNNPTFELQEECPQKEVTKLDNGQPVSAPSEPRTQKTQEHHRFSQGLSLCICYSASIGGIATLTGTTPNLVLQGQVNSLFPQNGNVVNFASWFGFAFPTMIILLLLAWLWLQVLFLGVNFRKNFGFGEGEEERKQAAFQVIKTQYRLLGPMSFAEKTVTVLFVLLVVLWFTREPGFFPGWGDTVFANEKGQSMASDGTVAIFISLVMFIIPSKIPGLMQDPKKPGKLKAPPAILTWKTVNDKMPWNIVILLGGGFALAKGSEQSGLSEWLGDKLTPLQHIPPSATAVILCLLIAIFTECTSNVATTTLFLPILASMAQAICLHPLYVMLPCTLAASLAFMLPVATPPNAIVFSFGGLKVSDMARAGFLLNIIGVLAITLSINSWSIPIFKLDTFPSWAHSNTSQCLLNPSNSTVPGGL

[2] = test inhibitor at 1 mM, approximately 100-fold excess, FIG. 14

T1 sequence (Q9VVT2 19-590 limits assumed): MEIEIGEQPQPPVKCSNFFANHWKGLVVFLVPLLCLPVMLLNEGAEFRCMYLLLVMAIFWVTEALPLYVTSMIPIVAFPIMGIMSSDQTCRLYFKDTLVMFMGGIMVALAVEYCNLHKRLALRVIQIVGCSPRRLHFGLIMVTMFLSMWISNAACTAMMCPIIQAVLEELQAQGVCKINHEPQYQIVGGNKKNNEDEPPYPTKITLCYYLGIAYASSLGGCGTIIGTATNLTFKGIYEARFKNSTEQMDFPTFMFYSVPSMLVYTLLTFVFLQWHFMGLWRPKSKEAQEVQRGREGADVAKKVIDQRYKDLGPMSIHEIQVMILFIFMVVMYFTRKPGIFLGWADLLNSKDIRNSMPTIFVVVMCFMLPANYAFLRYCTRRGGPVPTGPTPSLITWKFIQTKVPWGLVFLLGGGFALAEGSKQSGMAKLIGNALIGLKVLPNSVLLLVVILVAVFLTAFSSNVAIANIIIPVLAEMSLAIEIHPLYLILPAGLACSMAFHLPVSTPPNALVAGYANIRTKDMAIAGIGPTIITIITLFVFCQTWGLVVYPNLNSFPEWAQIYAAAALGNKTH

inhibition at 100 µM (INDY; citrate at 0.1 mM, FIG. 17): ~50%
inhibition at 1000 µM (INDY; citrate at 1 mM, FIG. 17, read-out: inhibition of succinate uptake): ~90%
inhibition of succinate uptake (in words) (INDY; citrate at 10 mM, FIG. 17): completely inhibits
inhibition at 1000 µM (INDY; test inhibitor at 1 mM, approximately 100-fold excess, FIG. 14, read-out: inhibition of [14C] succinate uptake): ~100%
Compound: O=C(O)CC(O)(CC(=O)O)C(=O)O [citrate]

inhibition of [14C] succinate uptake (INDY; [2]): ~100%
Compound: O=C(O)/C=C/C(=O)O [fumarate]

inhibition of succinate transport (in words) (INDY; [2]): little inhibition
Compound: CC(O)C(=O)O (centres unmarked) [lactate]

inhibition of [14C] succinate uptake (INDY; [2]): ~100%
Compound: O=C(O)CCC(=O)O [succinate]

Further lines, the compound ahead of its results:

Compound: O=S(=O)(O)c1cc(N=C=S)ccc1C=Cc1ccc(N=C=S)cc1S(=O)(=O)O [DIDS, 4,4′-Diisothyocyanostilbene-2,2′-disulfonic acid]
inhibition of succinate transport (INDY; 0.1 mM DIDS, FIG. 18): 80%

Compound: Nc1ccc(C(=O)NCC(=O)O)cc1 [PAH, P-aminohippuric Acid]
effect on succinate transport (in words) (INDY; 10 mM PAH, FIG. 18): no effect

Compound: O=C(O)CCC(=O)C(=O)O [alpha-ketoglutarate]
inhibition of [14C] succinate uptake (INDY; [2]): ~100%

Compound: N[C@@H](CCC(=O)O)C(=O)O [glutamate]
inhibition of succinate transport (in words) (INDY; [2]): little inhibition

Compound: O=C(CCc1ccc(O)cc1)c1c(O)cc(O)cc1O [phloretin, Phloretin]
effect on succinate transport (in words) (INDY; 1 mM phloretin, FIG. 18): no effect
effect on inward and outward currents in sodium-dependent transport [1]: inhibit both inward and outward currents

Compound: O=S(=O)(O)O [sulfate]
inhibition of succinate transport (in words) (INDY; [2]): little inhibition

Reference: patent US7118873B2, “Polynucleotides encoding cellular transporters and methods of use thereof” (The University of Connecticut, priority 2000, dated 2006)
